Article PMC9487510, “A Novel Oral GyrB/ParE Dual Binding Inhibitor Effective against Multidrug-Resistant Neisseria gonorrhoeae and Other High-Threat Pathogens” (Antimicrobial Agents and Chemotherapy, 2022)
Values after ≈ are worked out from the molar mass of the structure shown.

Test system: N. gonorrhoeae clinical isolates
Assay: MIC, agar dilution (CLSI)
Assay type: cell-based, Neisseria gonorrhoeae

CN(C)[C@@H]1C(O)=C(C(N)=O)C(=O)[C@@]2(O)C(O)=C3C(=O)c4c(O)cccc4[C@@](C)(O)[C@H]3C[C@@H]12 [Tet, tetracycline]
MIC range (96 clinical isolates): 0.063 to 16 µg/mL
MIC50 (Neisseria gonorrhoeae): 1 µg/mL (≈ 2.25 µM)
MIC90 (Neisseria gonorrhoeae): 1 µg/mL (≈ 2.25 µM)
MIC (Neisseria gonorrhoeae, strain CDC1 (GCREF2012 016)): 2 µg/mL (≈ 4.5 µM)
MIC (Neisseria gonorrhoeae, strain CDC2 (GCREF2012 045)): 1 µg/mL (≈ 2.25 µM)
MIC (Neisseria gonorrhoeae, strain CDC3 (GCREF2013 013)): 1 µg/mL (≈ 2.25 µM)
MIC (Neisseria gonorrhoeae, strain CDC4 (GCREF2013 030)): 0.5 µg/mL (≈ 1.13 µM)
MIC (Neisseria gonorrhoeae, strain CDC5 (GCREF2012 001)): 1 µg/mL (≈ 2.25 µM)
MIC (Neisseria gonorrhoeae, strain CDC6 (GCREF2012 002)): 1 µg/mL (≈ 2.25 µM)
MIC (Neisseria gonorrhoeae, strain CDC8 (GCREF2012 004)): 1 µg/mL (≈ 2.25 µM)
MIC (Neisseria gonorrhoeae, strain CDC9 (GCREF2012 005)): 1 µg/mL (≈ 2.25 µM)
MIC (Neisseria gonorrhoeae, strain CDC10 (GCREF2012 006)): 1 µg/mL (≈ 2.25 µM)
MIC (Neisseria gonorrhoeae, strain CDC11 (GCREF2012 007)): 1 µg/mL (≈ 2.25 µM)
MIC (Neisseria gonorrhoeae, strain CDC12 (GCREF2012 008)): 1 µg/mL (≈ 2.25 µM)
MIC (Neisseria gonorrhoeae, strain CDC13 (GCREF2012 009)): 1 µg/mL (≈ 2.25 µM)
MIC (Neisseria gonorrhoeae, strain CDC14 (GCREF2012 010)): 1 µg/mL (≈ 2.25 µM)
MIC (Neisseria gonorrhoeae, strain CDC15 (GCREF2012 011)): 0.5 µg/mL (≈ 1.13 µM)
MIC (Neisseria gonorrhoeae, strain CDC16 (GCREF2012 012)): 1 µg/mL (≈ 2.25 µM)
MIC (Neisseria gonorrhoeae, strain CDC18 (GCREF2012 014)): 1 µg/mL (≈ 2.25 µM)
MIC (Neisseria gonorrhoeae, strain CDC19 (GCREF2012 015)): 0.5 µg/mL (≈ 1.13 µM)
MIC (Neisseria gonorrhoeae, strain CDC20 (GCREF2012 017)): 1 µg/mL (≈ 2.25 µM)
MIC (Neisseria gonorrhoeae, strain CDC21 (GCREF2012 018)): 1 µg/mL (≈ 2.25 µM)
MIC (Neisseria gonorrhoeae, strain CDC22 (GCREF2012 019)): 1 µg/mL (≈ 2.25 µM)
MIC (Neisseria gonorrhoeae, strain CDC23 (GCREF2012 020)): 1 µg/mL (≈ 2.25 µM)
MIC (Neisseria gonorrhoeae, strain CDC24 (GCREF2012 021)): 1 µg/mL (≈ 2.25 µM)
MIC (Neisseria gonorrhoeae, strain CDC25 (GCREF2012 022)): 1 µg/mL (≈ 2.25 µM)
MIC (Neisseria gonorrhoeae, strain CDC26 (GCREF2012 023)): 0.5 µg/mL (≈ 1.13 µM)
MIC (Neisseria gonorrhoeae, strain CDC27 (GCREF2012 024)): 1 µg/mL (≈ 2.25 µM)
MIC (Neisseria gonorrhoeae, strain CDC28 (GCREF2012 025)): 1 µg/mL (≈ 2.25 µM)
MIC (Neisseria gonorrhoeae, strain CDC29 (GCREF2012 026)): 1 µg/mL (≈ 2.25 µM)
MIC (Neisseria gonorrhoeae, strain CDC30 (GCREF2012 027)): 1 µg/mL (≈ 2.25 µM)
MIC (Neisseria gonorrhoeae, strain CDC31 (GCREF2012 028)): 2 µg/mL (≈ 4.5 µM)
MIC (Neisseria gonorrhoeae, strain CDC32 (GCREF2012 029)): 0.5 µg/mL (≈ 1.13 µM)
MIC (Neisseria gonorrhoeae, strain CDC33 (GCREF2012 030)): 0.5 µg/mL (≈ 1.13 µM)
MIC (Neisseria gonorrhoeae, strain CDC34 (GCREF2012 031)): 1 µg/mL (≈ 2.25 µM)
MIC (Neisseria gonorrhoeae, strain CDC35 (GCREF2012 032)): 2 µg/mL (≈ 4.5 µM)
MIC (Neisseria gonorrhoeae, strain CDC36 (GCREF2012 033)): 1 µg/mL (≈ 2.25 µM)
MIC (Neisseria gonorrhoeae, strain CDC37 (GCREF2012 034)): 1 µg/mL (≈ 2.25 µM)
MIC (Neisseria gonorrhoeae, strain CDC38 (GCREF2012 035)): 1 µg/mL (≈ 2.25 µM)
MIC (Neisseria gonorrhoeae, strain CDC39 (GCREF2012 036)): 1 µg/mL (≈ 2.25 µM)
MIC (Neisseria gonorrhoeae, strain CDC40 (GCREF2012 037)): 1 µg/mL (≈ 2.25 µM)
MIC (Neisseria gonorrhoeae, strain CDC41 (GCREF2012 038)): 1 µg/mL (≈ 2.25 µM)
MIC (Neisseria gonorrhoeae, strain CDC42 (GCREF2012 039)): 2 µg/mL (≈ 4.5 µM)
MIC (Neisseria gonorrhoeae, strain CDC43 (GCREF2012 040)): 2 µg/mL (≈ 4.5 µM)
MIC (Neisseria gonorrhoeae, strain CDC45 (GCREF2012 042)): 2 µg/mL (≈ 4.5 µM)
MIC (Neisseria gonorrhoeae, strain CDC46 (GCREF2012 043)): 1 µg/mL (≈ 2.25 µM)
MIC (Neisseria gonorrhoeae, strain CDC47 (GCREF2012 044)): 1 µg/mL (≈ 2.25 µM)
MIC (Neisseria gonorrhoeae, strain CDC48 (GCREF2012 046)): 1 µg/mL (≈ 2.25 µM)
MIC (Neisseria gonorrhoeae, strain CDC49 (GCREF2012 047)): 1 µg/mL (≈ 2.25 µM)
MIC (Neisseria gonorrhoeae, strain CDC50 (GCREF2012 048)): 1 µg/mL (≈ 2.25 µM)
MIC (Neisseria gonorrhoeae, strain CDC51 (GCREF2012 049)): 1 µg/mL (≈ 2.25 µM)
MIC (Neisseria gonorrhoeae, strain CDC52 (GCREF2012 050)): 1 µg/mL (≈ 2.25 µM)
MIC (Neisseria gonorrhoeae, strain CDC53 (GCREF2012 051)): 1 µg/mL (≈ 2.25 µM)
MIC (Neisseria gonorrhoeae, strain CDC54 (GCREF2012 052)): 1 µg/mL (≈ 2.25 µM)
MIC (Neisseria gonorrhoeae, strain CDC55 (GCREF2013 001)): 1 µg/mL (≈ 2.25 µM)
MIC (Neisseria gonorrhoeae, strain CDC56 (GCREF2013 002)): 1 µg/mL (≈ 2.25 µM)
MIC (Neisseria gonorrhoeae, strain CDC57 (GCREF2013 003)): 0.5 µg/mL (≈ 1.13 µM)
MIC (Neisseria gonorrhoeae, strain CDC58 (GCREF2013 004)): 1 µg/mL (≈ 2.25 µM)
MIC (Neisseria gonorrhoeae, strain CDC59 (GCREF2013 044)): 16 µg/mL (≈ 36 µM)
MIC (Neisseria gonorrhoeae, strain CDC60 (GCREF2013 005)): 1 µg/mL (≈ 2.25 µM)
MIC (Neisseria gonorrhoeae, strain CDC61 (GCREF2013 006)): 1 µg/mL (≈ 2.25 µM)
MIC (Neisseria gonorrhoeae, strain CDC62 (GCREF2013 007)): 0.5 µg/mL (≈ 1.13 µM)
MIC (Neisseria gonorrhoeae, strain CDC63 (GCREF2013 008)): 0.063 µg/mL (≈ 0.142 µM)
MIC (Neisseria gonorrhoeae, strain CDC64 (GCREF2013 009)): 1 µg/mL (≈ 2.25 µM)
MIC (Neisseria gonorrhoeae, strain CDC65 (GCREF2013 010)): 0.5 µg/mL (≈ 1.13 µM)
MIC (Neisseria gonorrhoeae, strain CDC66 (GCREF2013 011)): 0.5 µg/mL (≈ 1.13 µM)
MIC (Neisseria gonorrhoeae, strain CDC67 (GCREF2013 014)): 1 µg/mL (≈ 2.25 µM)
MIC (Neisseria gonorrhoeae, strain CDC68 (GCREF2013 016)): 1 µg/mL (≈ 2.25 µM)
MIC (Neisseria gonorrhoeae, strain CDC69 (GCREF2013 017)): 1 µg/mL (≈ 2.25 µM)
MIC (Neisseria gonorrhoeae, strain CDC70 (GCREF2013 018)): 1 µg/mL (≈ 2.25 µM)
MIC (Neisseria gonorrhoeae, strain CDC71 (GCREF2013 019)): 1 µg/mL (≈ 2.25 µM)
MIC (Neisseria gonorrhoeae, strain CDC72 (GCREF2013 020)): 1 µg/mL (≈ 2.25 µM)
MIC (Neisseria gonorrhoeae, strain CDC73 (GCREF2013 021)): 1 µg/mL (≈ 2.25 µM)
MIC (Neisseria gonorrhoeae, strain CDC74 (GCREF2013 022)): 1 µg/mL (≈ 2.25 µM)
MIC (Neisseria gonorrhoeae, strain CDC75 (GCREF2013 023)): 1 µg/mL (≈ 2.25 µM)
MIC (Neisseria gonorrhoeae, strain CDC76 (GCREF2013 024)): 1 µg/mL (≈ 2.25 µM)
MIC (Neisseria gonorrhoeae, strain CDC77 (GCREF2013 025)): 1 µg/mL (≈ 2.25 µM)
MIC (Neisseria gonorrhoeae, strain CDC78 (GCREF2013 026)): 1 µg/mL (≈ 2.25 µM)
MIC (Neisseria gonorrhoeae, strain CDC79 (GCREF2013 027)): 1 µg/mL (≈ 2.25 µM)
MIC (Neisseria gonorrhoeae, strain CDC80 (GCREF2013 028)): 1 µg/mL (≈ 2.25 µM)
MIC (Neisseria gonorrhoeae, strain CDC81 (GCREF2013 029)): 1 µg/mL (≈ 2.25 µM)
MIC (Neisseria gonorrhoeae, strain CDC82 (GCREF2013 031)): 0.5 µg/mL (≈ 1.13 µM)
MIC (Neisseria gonorrhoeae, strain CDC83 (GCREF2013 032)): 0.5 µg/mL (≈ 1.13 µM)
MIC (Neisseria gonorrhoeae, strain CDC84 (GCREF2013 033)): 0.5 µg/mL (≈ 1.13 µM)
MIC (Neisseria gonorrhoeae, strain CDC86 (GCREF2013 035)): 0.25 µg/mL (≈ 0.563 µM)
MIC (Neisseria gonorrhoeae, strain CDC87 (GCREF2013 036)): 1 µg/mL (≈ 2.25 µM)
MIC (Neisseria gonorrhoeae, strain CDC88 (GCREF2013 037)): 0.5 µg/mL (≈ 1.13 µM)
MIC (Neisseria gonorrhoeae, strain CDC89 (GCREF2013 038)): 1 µg/mL (≈ 2.25 µM)
MIC (Neisseria gonorrhoeae, strain CDC90 (GCREF2013 039)): 1 µg/mL (≈ 2.25 µM)
MIC (Neisseria gonorrhoeae, strain CDC91 (GCREF2013 040)): 1 µg/mL (≈ 2.25 µM)
MIC (Neisseria gonorrhoeae, strain CDC92 (GCREF2013 041)): 1 µg/mL (≈ 2.25 µM)
MIC (Neisseria gonorrhoeae, strain CDC93 (GCREF2013 042)): 1 µg/mL (≈ 2.25 µM)
MIC (Neisseria gonorrhoeae, strain CDC94 (GCREF2013 043)): 0.5 µg/mL (≈ 1.13 µM)
MIC (Neisseria gonorrhoeae, strain CDC95 (GCREF2013 045)): 1 µg/mL (≈ 2.25 µM)
MIC (Neisseria gonorrhoeae, strain CDC96 (GCREF2013 046)): 0.5 µg/mL (≈ 1.13 µM)
MIC (Neisseria gonorrhoeae, strain CDC97 (GCREF2013 047)): 1 µg/mL (≈ 2.25 µM)
MIC (Neisseria gonorrhoeae, strain CDC98 (GCREF2013 048)): 0.5 µg/mL (≈ 1.13 µM)
MIC (Neisseria gonorrhoeae, strain CDC99 (GCREF2013 012)): 0.5 µg/mL (≈ 1.13 µM)
MIC (Neisseria gonorrhoeae, strain CDC100 (GCREF2013 015)): 1 µg/mL (≈ 2.25 µM)
